# Assay results reported in article PMC11061149, “Protein mimetic 2D FAST rescues alpha synuclein aggregation mediated early and post disease Parkinson’s phenotypes” (Nature Communications, 2024).
# Where “and” joins values, the source holds several entries; their conditions need not be identical. Equal values may be shown once.
# Tests used:
# [1] = system: HEK cells expressing αSA53T-YFP; experiment: MTT reduction assay of HEK cells treated with αS aggregated with or without ligand; format: cell-based, human
# Method: The aggregation of endogenous monomeric αS-A53T-YFP into fibers can be detected by the intracellular fluorescent puncta (Fig. 3a, + αS). A solution of 100 μM αS was aggregated in the absence and presence of NS132 at an equimolar ratio for four days. The resulting solutions of αS fibers (5 μM in monomeric αS, ±NS132) were introduced to HEK cells in the presence of Lipofectamine 3000 for 24 h. In contrast to the control (no fibers), we observed a significant number of fluorescent inclusions in the presence of αS fibers (Fig. 3a, white arrows, +αS), which was a consequence of the templating of endogenous monomeric αS-A53T-YFP by the exogenously added αS fibers. […] Moreover, we observed the colocalization of an adaptor protein, p62, in the aggresome of αS inclusions in HEK cells (Fig. 3b, +αS, red),[51]–[54]. […] We also quantified the inclusions (αS-A53T-YFP) using a ProteoStat dye-based high throughput 96-well plate reader-based assay recently developed in our lab[24]. […] The viability of HEK cells was measured using the (3-(4,5-dimethylthiazol-2-yl)-2,5-diphenyltetrazolium bromide) (MTT) reduction based assay.
# This assay was performed based on a previous protocol with slight modifications. […] The crystals were dissolved with gentle shaking of the plate, and subsequently, the absorbance was measured at 570 nm using an Infinite M200 Pro Plate Reader (Tecan, Grŏdig, Austria). […]
# [2] = system: HEK293 cells stably expressing αS-A53T-YFP; experiment: HEK cells transfected with αS aggregated with or without ligand: inclusions (ProteoStat dye, confocal); format: cell-based, human
# Method: The aggregation of endogenous monomeric αS-A53T-YFP into fibers can be detected by the intracellular fluorescent puncta (Fig. 3a, + αS). A solution of 100 μM αS was aggregated in the absence and presence of NS132 at an equimolar ratio for four days. The resulting solutions of αS fibers (5 μM in monomeric αS, ±NS132) were introduced to HEK cells in the presence of Lipofectamine 3000 for 24 h. In contrast to the control (no fibers), we observed a significant number of fluorescent inclusions in the presence of αS fibers (Fig. 3a, white arrows, +αS), which was a consequence of the templating of endogenous monomeric αS-A53T-YFP by the exogenously added αS fibers. […] Moreover, we observed the colocalization of an adaptor protein, p62, in the aggresome of αS inclusions in HEK cells (Fig. 3b, +αS, red),[51]–[54]. […] The autophagy machinery regulates many vital cellular processes and its impairment due to αS aggregation can lead to PD and other neurodegenerative disorders[51]–[54]. […] We also quantified the inclusions (αS-A53T-YFP) using a ProteoStat dye-based high throughput 96-well plate reader-based assay recently developed in our lab[24]. The ProteoStat dye-based intensity of HEK cells treated with αS fibers was ~4-5 fold higher than the control (no fibers) (Fig. 3c, +αS, black). […] Therefore, we used HEK cells to test the cytotoxicity of the aggregated solution of αS in the absence and presence of NS132 (Fig. 3d). The viability of HEK cells was measured using the (3-(4,5-dimethylthiazol-2-yl)-2,5-diphenyltetrazolium bromide) (MTT) reduction based assay.
# The Lipofectamine solution was made fresh for each transfection to avoid possible denaturation of reagents in a stored stock solution. For each transfection protocol, the total volume of lipofectamine solution required is equivalent to 30% of the total volume of αS/lipofectamine solution needed. […]
# This assay was performed based on a previous protocol with slight modifications. […] The resulting cell pellets were then homogenized, transferred into an autoclaved 1.7 mL microcentrifuge tube, and counted to normalize the data. […]
smiles,measurement,setting,value
Cc1ccc(NC(=O)c2ccc(NC(=O)c3ccc([N+](=O)[O-])c(NCCc4c[nH]c5ccccc45)n3)c(NCC3CCCCC3)n2)c(OCC(=O)O)n1 [NS132],"relative viability of HEK cells, individual trials","[1]; HEK cells + Synuclein fibers aggregated with equimolar NS132, control = 1",0.8792 and 0.8235 and 0.899 and 0.8879 and 0.9679 and 0.8608 and 0.7821 and 0.8196 and 0.8279 and 0.7732 and 0.9011 and 0.8063 and 0.8583 and 0.8947 and 0.7357 and 0.8112
same,viability of HEK cells,[1]; αS aggregated solution with an equimolar ratio of NS132 (52% with αS alone),85%
same,"intracellular αS-A53T-YFP inclusions (confocal), in words",[2]; HEK293 cells transfected with αS aggregated in the presence of NS132,significant decrease
same,"ProteoStat intensity versus control (no fibers), in words",[2]; HEK cells + 5 μM αS aggregated with equimolar NS132,did not observe a significant difference
same,"ProteoStat dye intensity (raw), individual experiments","[2]; HEK cells + 5 μM αS fibers aggregated with equimolar NS132, 24 h",538 and 599 and 420 and 486 and 619 and 476 and 665 and 696 and 519 and 621 and 647 and 693
